The source of these data is US7087623B2, “Thiazole and other heterocyclic ligands for mammalian dopamine, muscarinic and serotonin receptors and transporters, and methods of use thereof” (Sepracor Inc., priority 2001, dated 2006).

The structures appear in SMILES notation. Like-named read-outs stand apart in the source and are kept apart here.

Test [1] concerns the target T1, human serotonin 5-HT6 receptor (Homo sapiens, UniProt P50406).
T1 construct: expressed in transfected cells; host or cells: HeLa/E6-7
Kind of test: Radioligand binding assay, human 5-HT6 receptors ([3H]LSD). The method, then: (§1) The human 5-HT2a and 5-HT2b screens were conducted according to Bonhaus, D. W. et al. Br. J. Pharmacol. 1995, 115, 622. The human 5-HT2c screen was conducted according to Wolf, W. A. et al. J. Neurochem. 1997, 69, 1449. The human 5-HT6 screen was conducted according to Monsma, F. J. et al. Mol. Pharmacol. 1993, 43, 320.
This assay measures binding of [^3H]LSD (lysergic acid diethylamide) to human serotonin 5-HT6 receptors. HeLa/E6–7 cells stably transfected with a plasmid encoding the human serotonin 5-HT6 receptor were used to prepare membranes in modified Tris-HCl pH 7.4 buffer using standard techniques. A 30 μg aliquot of membrane was incubated with 1.5 nM [^3H]LSD for 120 minutes at 37° C. Non-specific binding was estimated in the presence of 5 μM 5-HT. Membranes were filtered and washed 3 times and the filters were counted to determine [^3H]LSD specifically bound. See Monsma, Jr., F. J. et al. “Cloning and expression of a novel serotonin receptor with high affinity for tricyclic psychotropic drugs” Mol. Pharmacol. 43: 320–327, 1993.
(§2) The human 5-HT2a and 5-HT2b screens were conducted according to Bonhaus, D. W. et al. Br. J. Pharmacol. 1995, 115, 622. The human […], W. A. et al. J. Neurochem. 1997, 69, 1449. The human 5-HT6 screen was conducted according to Monsama, F. J. et al. Mol. Pharmacol. 1993, 43, 320. The assay to human D3 receptors was conducted according to Sokoloff, P. et al. Nature 1990, 347;146. The human dopamine transporter assay was conducted according to Gu, H. et. al. J. Biol. Chem. 1994, 269 (10);7124; and Giros, B. et al. Trends. Pharmacol. Sci. 1993, 14: 43. The human muscarinic M1–M4 screens were conducted according to Buckley N. J. et al. Mol. Pharmacol. 1989, 35:469.

Test [2] addresses T2, human serotonin 5-HT2C receptor (Homo sapiens, UniProt P28335).
T2 construct: expressed in transfected cells; host or cells: CHO-K1
T2 sequence (P28335 33-458): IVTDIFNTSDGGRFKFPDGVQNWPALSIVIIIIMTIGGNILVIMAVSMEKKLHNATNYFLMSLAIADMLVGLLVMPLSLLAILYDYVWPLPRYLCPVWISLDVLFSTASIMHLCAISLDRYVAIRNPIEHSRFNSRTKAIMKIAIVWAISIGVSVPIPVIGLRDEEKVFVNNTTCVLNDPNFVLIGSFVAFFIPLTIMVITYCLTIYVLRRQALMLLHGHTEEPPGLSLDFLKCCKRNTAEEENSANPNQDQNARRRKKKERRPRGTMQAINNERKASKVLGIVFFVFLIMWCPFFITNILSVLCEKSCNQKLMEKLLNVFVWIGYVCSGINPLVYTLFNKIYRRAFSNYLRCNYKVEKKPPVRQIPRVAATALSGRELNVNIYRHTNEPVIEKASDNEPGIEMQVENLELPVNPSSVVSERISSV
Kind of test: Radioligand binding assay, human 5-HT2C receptors ([3H]Mesulergine). The method, then: as §1
CHO-K1 cells stably transfected with a plasmid encoding the human serotonin 5-HT2C receptor were used to prepare membranes in modified Tris-HCl pH 7.7 buffer using standard techniques. […] Non-specific binding was estimated in the presence of 1 μM mianserin. […] See Wolf, W. A. and Schutz, J. S. “The serotonin 5-HT2C receptor is a prominent serotonin receptor in basal ganglia: evidence from functional studies on serotonin-mediated phosphoinositide hydrolysis” J. Neurochem. 69: 1449–1458, 1997.
as §2

Test [3] addresses T3, human serotonin 5-HT2A receptor (Homo sapiens, UniProt P28223).
T3 construct: expressed in transfected cells; host or cells: CHO-K1
Briefly: Radioligand binding assay, human 5-HT2A receptors ([3H]Ketanserin). The method, then:
as §1
CHO-K1 cells stably transfected with a plasmid encoding the human serotonin 5-HT2A receptor were used to prepare membranes in modified Tris-HCl pH 7.7 buffer using standard techniques. […] Non-specific binding was estimated in the presence of 1 μM mianserin. […] See Bonhaus, D. W. et al. “The pharmacology and distribution of human 5-hydroxytryptamine2B (5-HT2B) receptor gene products: comparison with 5-HT2A and 5-HT2C receptors” Brit. J. Pharmacol. 115: 622–628, 1995; and Saucier, C and Albert, P. R. “Identification of an endogenous 5-hydroxytryptamine2A receptor in NIH-3T3 cells: agonist-induced down-regulation involves decreases in receptor RNA and number” J. Neurochem. 68: 1998–2011, 1997.
as §2

The target in test [4] is T4, human dopamine D3 receptor (Homo sapiens, UniProt P35462).
T4 construct: expressed in transfected cells; host or cells: CHO
T4 sequence (P35462 whole entry): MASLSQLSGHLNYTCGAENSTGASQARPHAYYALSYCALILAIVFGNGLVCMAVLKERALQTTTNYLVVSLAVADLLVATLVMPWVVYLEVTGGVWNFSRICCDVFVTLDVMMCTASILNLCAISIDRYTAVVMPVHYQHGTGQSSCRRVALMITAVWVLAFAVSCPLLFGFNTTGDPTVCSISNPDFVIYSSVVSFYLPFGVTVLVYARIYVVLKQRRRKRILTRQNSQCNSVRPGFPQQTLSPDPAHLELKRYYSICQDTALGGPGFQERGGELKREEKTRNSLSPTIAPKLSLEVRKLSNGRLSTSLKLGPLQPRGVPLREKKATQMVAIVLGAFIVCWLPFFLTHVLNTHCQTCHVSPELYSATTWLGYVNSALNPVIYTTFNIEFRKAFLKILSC
Briefly: Radioligand binding assay, human dopamine D3 receptors ([3H]Spiperone). The method, then:
The assay for binding to human D3 receptors was conducted according to Sokoloff, P. et al. Nature 1990, 347, 146.
CHO cells stably transfected with a plasmid encoding the human dopamine D3 receptor were used to prepare membranes in modified Tris-HCl pH 7.4 buffer using standard techniques. […] Non-specific binding was estimated in the presence of 25 μM S-(−)-sulpiride. […] See Sokoloff, P. et al. “Molecular cloning and characterization of a novel dopamine receptor (D3) as a target for neuroleptics” Nature 347: 146–151, 1990.
as §2

The target of test [5] is T5, human serotonin 5-HT2B receptor (Homo sapiens, UniProt P41595).
T5 construct: expressed in transfected cells; host or cells: CHO-K1
T5 sequence (P41595 whole entry): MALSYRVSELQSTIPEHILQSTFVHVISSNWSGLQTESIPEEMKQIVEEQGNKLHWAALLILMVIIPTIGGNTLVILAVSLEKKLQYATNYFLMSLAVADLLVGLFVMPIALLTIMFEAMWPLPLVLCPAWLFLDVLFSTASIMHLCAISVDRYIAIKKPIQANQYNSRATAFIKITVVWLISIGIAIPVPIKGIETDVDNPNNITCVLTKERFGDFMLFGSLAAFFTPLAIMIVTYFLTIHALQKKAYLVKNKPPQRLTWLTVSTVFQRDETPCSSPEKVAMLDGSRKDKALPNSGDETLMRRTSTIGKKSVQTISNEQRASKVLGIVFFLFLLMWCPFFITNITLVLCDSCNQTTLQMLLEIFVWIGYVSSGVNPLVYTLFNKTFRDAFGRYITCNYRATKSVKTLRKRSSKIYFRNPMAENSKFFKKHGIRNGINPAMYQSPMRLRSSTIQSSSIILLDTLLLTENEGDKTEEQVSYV
Kind of test: Radioligand binding assay, human 5-HT2B receptors ([3H]LSD). As to the method:
This assay measures binding of [^3H]LSD to human serotonin 5-HT2B receptors. CHO-K1 cells stably transfected with a plasmid encoding the human serotonin 5-HT2B receptor were used to prepare membranes in modified Tris-HCl pH 7.4 buffer using standard techniques. […] Non-specific binding was estimated in the presence of 10 μM serotonin. Membranes were filtered and washed 3 times and the filters were counted to determine [^3H]LSD specifically bound. See Bonhaus, D. W. et al. “The pharmacology and distribution of human 5-hydroxytryptamine2B (5-HT2B) receptor gene products: comparison with 5-HT2A and 5-HT2C receptors” Brit.
The human 5-HT2b screen was conducted according to Wolf, W. A. et al. J. Neurochem.

For test [6], the target named is T6, human dopamine transporter (Homo sapiens, UniProt Q01959).
T6 construct: expressed in transfected cells; host or cells: CHO-K1
T6 sequence (Q01959 whole entry): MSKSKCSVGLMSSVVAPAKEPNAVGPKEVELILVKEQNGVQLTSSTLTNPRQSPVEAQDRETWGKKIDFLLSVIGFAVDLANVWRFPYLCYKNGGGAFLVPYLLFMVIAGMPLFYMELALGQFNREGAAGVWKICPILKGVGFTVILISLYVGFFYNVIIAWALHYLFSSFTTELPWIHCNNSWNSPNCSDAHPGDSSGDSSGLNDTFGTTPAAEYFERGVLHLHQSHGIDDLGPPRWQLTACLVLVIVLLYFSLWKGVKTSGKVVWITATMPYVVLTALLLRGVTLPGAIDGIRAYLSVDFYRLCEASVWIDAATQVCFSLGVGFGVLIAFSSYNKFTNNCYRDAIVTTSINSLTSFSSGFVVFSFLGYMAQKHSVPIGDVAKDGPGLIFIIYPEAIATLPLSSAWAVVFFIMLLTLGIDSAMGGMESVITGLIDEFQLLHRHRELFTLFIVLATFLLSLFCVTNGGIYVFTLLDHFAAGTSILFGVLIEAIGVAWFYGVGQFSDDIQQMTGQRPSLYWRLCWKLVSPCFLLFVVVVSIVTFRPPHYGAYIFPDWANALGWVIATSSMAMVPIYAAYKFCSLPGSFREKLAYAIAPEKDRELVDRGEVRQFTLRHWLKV
Kind of test: Binding to human dopamine transporter ([125I]RTI-55). As to the method:
CHO-K1 cell membranes stably transfected with a plasmid encoding the human dopamine transporter were prepared in modified Tris-HCl pH 7.4 buffer using standard techniques. […] Non-specific binding was estimated in the presence of 10 μM nomifensine. […] Trends. […]

Setting [7] is: human 5-HT6, Example 16 table, read-out: IC50 (nM) 5-HT6.
[8] abbreviates: human 5-HT2c, Example 16 table, read-out: IC50 (nM) 5-HT2c.
[9] abbreviates: human 5-HT2a, Example 16 table, read-out: IC50 (nM) 5-HT2a.
Setting [10] is: Example 20 table, read-out: IC50 (nM) Against Human D3 Receptors.
The mark [11] stands for this setting: human 5-HT2b, Example 16 table, read-out: IC50 (nM) 5-HT2b.
Setting [12] is: human, Example 101 table, read-out: IC50 (nM) DAT.
Where [13] appears, read: human, Example 100 table, read-out: IC50 (nM) 5-HT6.
Where [14] appears, read: human, Example 100 table, read-out: IC50 (nM) D3.
The mark [15] stands for this setting: human, Example 100 table, read-out: IC50 (nM) DAT.

T3 sequence (P28223 whole entry): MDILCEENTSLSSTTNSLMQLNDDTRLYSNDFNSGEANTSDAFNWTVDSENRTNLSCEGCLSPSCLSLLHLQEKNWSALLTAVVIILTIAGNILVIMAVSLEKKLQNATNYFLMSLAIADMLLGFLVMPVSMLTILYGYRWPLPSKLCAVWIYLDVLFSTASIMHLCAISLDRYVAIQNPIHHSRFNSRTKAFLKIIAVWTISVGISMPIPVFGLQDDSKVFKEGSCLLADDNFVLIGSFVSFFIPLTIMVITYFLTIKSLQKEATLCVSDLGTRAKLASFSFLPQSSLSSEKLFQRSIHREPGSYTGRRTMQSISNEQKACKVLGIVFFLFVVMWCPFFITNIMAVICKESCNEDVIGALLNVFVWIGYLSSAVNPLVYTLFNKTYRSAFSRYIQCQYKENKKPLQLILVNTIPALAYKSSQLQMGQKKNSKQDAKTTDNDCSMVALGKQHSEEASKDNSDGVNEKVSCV
T1 sequence (P50406 whole entry): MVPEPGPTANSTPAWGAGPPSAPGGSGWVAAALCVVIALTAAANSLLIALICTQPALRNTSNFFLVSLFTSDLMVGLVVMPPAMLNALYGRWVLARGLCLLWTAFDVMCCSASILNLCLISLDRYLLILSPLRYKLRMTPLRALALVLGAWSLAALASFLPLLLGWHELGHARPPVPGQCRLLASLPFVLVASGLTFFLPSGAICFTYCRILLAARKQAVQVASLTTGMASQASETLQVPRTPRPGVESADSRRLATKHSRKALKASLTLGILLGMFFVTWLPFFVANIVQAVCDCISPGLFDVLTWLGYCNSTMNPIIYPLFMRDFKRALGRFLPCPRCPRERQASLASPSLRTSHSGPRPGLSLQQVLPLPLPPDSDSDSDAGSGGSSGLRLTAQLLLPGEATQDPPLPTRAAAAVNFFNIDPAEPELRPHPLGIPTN

As to `Clc1ccc(C2(c3csc(NCCN4CCCCC4)n3)CCC2)cc1` [Compound 23, {4-[1-(4-chlorophenyl)-cyclobutyl]thiazol-2-yl}-(2-piperidin-1-yl-ethyl)amine], the IC50 (commonly the point on the concentration scale where inhibition reaches its midpoint) was over 1000 nM in test [1] (setting [7]); under 100 nM in test [2] (setting [8]); under 1000 nM in test [3] (setting [9]); under 1000 nM in test [4] (setting [10]); under 1000 nM in test [5] (setting [11]); under 500 nM in test [6] (setting [12]).

Regarding `CCN1CCCC1CNc1nc(C2(c3ccc(Cl)cc3)CCC2)cs1` (centres unmarked) [Compound 25, {4-[1-(4-chlorophenyl)cyclobutyl]thiazol-2-yl}-(1-ethylpyrrolidin-2-ylmethyl)amine], the IC50 in test [1] (setting [7]) is under 1000 nM; in test [2] (setting [8]), under 1000 nM; in test [3] (setting [9]) it was under 1000 nM; in test [4] (setting [10]) it was under 1000 nM; in test [5] (setting [11]), under 1000 nM; in test [6] (setting [12]) it was over 1000 nM.

For the compound `COc1ccc(C2(c3csc(N4CCN(C)CC4)n3)CCOCC2)cc1OC` [Compound 74], the IC50 in test [1] (setting [7]), in test [2] (setting [8]), in test [3] (setting [9]), in test [4] (setting [10]), in test [5] (setting [11]) and in test [6] (setting [12]) was over 1000 nM throughout.

Regarding `Clc1ccc(C2(c3csc(NCCN4CCOCC4)n3)CCC2)cc1` [Compound 22, {4-[1-(4-chlorophenyl)-cyclobutyl]thiazol-2-yl}-(2-morpholin-4-yl-ethyl)amine], the IC50 in test [1] (setting [7]), in test [2] (setting [8]), in test [3] (setting [9]), in test [4] (setting [10]), in test [5] (setting [11]) and in test [6] (setting [12]) was over 1000 nM in each case.

Regarding `CN1CCCC1CCNc1nc(C2(c3ccc(Cl)cc3)CCOCC2)cs1` (racemic) [Compound 125, {4-[4-(4-chlorophenyl)-tetrahydropyran-4-yl]-thiazol-2-yl}-[2-(1-methyl-pyrrolidin-2-yl)-ethyl]-amine], the IC50 in test [1] (setting [13]), in test [4] (setting [14]) and in test [6] (setting [15]) was over 1000 nM each time.

Consider `CN1CCC(c2nc(C3(c4ccc(Cl)cc4)CCCCC3)cs2)CC1` [Compound 35], for which the IC50 was under 1000 nM in test [1] (setting [7]); under 1000 nM in test [2] (setting [8]); under 1000 nM in test [3] (setting [9]); under 100 nM in test [4] (setting [10]); under 1000 nM in test [5] (setting [11]); under 100 nM in test [6] (setting [12]).

Turning to `CN1CCCC1CCNc1nc(C2(c3ccc(Cl)cc3)CCC2)no1` (centres unmarked) [Compound 26, {3-[1-(4-Chlorophenyl)cyclobutyl]-[1,2,4]oxadiazol-5-yl}-[2-(1-methyl-pyrrolidin-2-yl)-ethyl]-amine], the IC50 in test [1] (IC50 (nM) 5-HT6, human 5-HT6, Example 16 table) is over 1000 nM; in test [2] (IC50 (nM) 5-HT2c, human 5-HT2c, Example 16 table) it was under 1000 nM; in test [3] (IC50 (nM) 5-HT2a, human 5-HT2a, Example 16 table), over 1000 nM; in test [4] (IC50 (nM) Against Human D3 Receptors, Example 20 table), over 1000 nM; in test [5], over 1000 nM; in test [6] it was under 1000 nM.

As for `CN1CCN(c2nc(C3(c4ccc(Cl)cc4)CCCC3)cs2)CC1` [Compound 85], the IC50 in test [1] (setting [7]) is under 100 nM; in test [2] (setting [8]), under 1000 nM; in test [3] (setting [9]), over 1000 nM; in test [4] (setting [10]), under 1000 nM; in test [5] (setting [11]), under 1000 nM; in test [6] (setting [12]), under 100 nM.

In the case of `CN1CCC(N(C)c2nc(C3(c4ccc(Cl)cc4)CCCC3)cs2)C1` (centres unmarked) [Compound 116], the IC50 in test [1] (setting [13]) was under 10 nM; in test [4] (setting [14]) it was over 1000 nM; in test [6] (setting [15]), under 1000 nM.

Consider `CNC1CCN(c2nc(C3(c4ccccc4F)CCCCC3)cs2)C1` (centres unmarked) [Compound 134, (1-{4-[1-(2-fluorophenyl)-cyclohexyl]-thiazol-2-yl}-pyrrolidin-3-yl)-methyl-amine], for which the IC50 in test [1] (setting [13]) is under 1000 nM; in test [4] (setting [14]), over 1000 nM; in test [6] (setting [15]), over 1000 nM.

Regarding `CN1CCCC1CCNc1nc(C2(c3ccccc3F)CCCC2)cs1` (centres unmarked) [Compound 111], the results for the IC50 in test [1] (setting [13]), in test [4] (setting [14]) and in test [6] (setting [15]) were under 1000 nM, under 1000 nM and over 1000 nM, respectively.

For `Fc1ccccc1C1(c2csc(N3CCN(CC4CC4)CC3)n2)CCCC1` [Compound 122], the IC50 in test [1] (setting [13]), in test [4] (setting [14]) and in test [6] (setting [15]) was under 1000 nM in each case.

`Fc1ccccc1C1(c2csc(N3CCNCC3)n2)CCCC1` [Compound 121]: the IC50 in test [1] (setting [13]) was under 100 nM; in test [4] (setting [14]), over 1000 nM; in test [6] (setting [15]), over 1000 nM.

For `COc1cccc(C2(c3csc(N4CCN(C)CC4)n3)CCOCC2)c1` [Compound 67], the IC50 was under 1000 nM in test [1] (setting [13]); over 1000 nM in test [2] (human, Example 100 table, read-out: IC50 (nM) 5-HT2C); over 1000 nM in test [3] (human, Example 100 table, read-out: IC50 (nM) 5-HT2A); over 1000 nM in test [4] (setting [14]); over 1000 nM in test [5] (human, Example 100 table, read-out: IC50 (nM) 5-HT2B).

With `Clc1ccc(C2(c3csc(NCCN4CCOCC4)n3)CCCC2)cc1` [Compound 99], the IC50 is under 1000 nM in test [1] (setting [13]), over 1000 nM in test [4] (setting [14]) and under 1000 nM in test [6] (setting [15]).
